Measured values published in US20120157401A1, “METHODS FOR TREATING NEUROFIBROMATOSIS” (PTC Therapeutics, Inc., priority 2009, published 2012).
Where two headings read alike, the source gives them in different places.

System: hypoxia-inducible endogenous VEGF expression
Assay: Hypoxia-inducible endogenous VEGF expression ELISA in HeLa cells, dose-response EC50 (Table 3)
Assay type: cell-based, human
Outline: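 HeLa cells kept 24-48 h under hypoxia (1% O2, 5% CO2, nitrogen balance) with or without compound, e.g. seven concentrations; secreted VEGF in conditioned medium quantified by ELISA against a standard curve. Parallel Cell Titer Glo viability under identical conditions excludes cytotoxicity.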

[1] = Homo sapiens, HeLa cells, hypoxic conditions (1% O2), VEGF ELISA of conditioned media, read-out: ELISA EC50
[2] = Homo sapiens, HeLa cells, hypoxic conditions (1% O2), 24-48 hours, VEGF in conditioned media, read-out: ELISA EC50
[3] = Homo sapiens, HeLa, read-out: ELISA EC50 μM

SMILES | EC50 [2] | EC50 [3] | other results
Cc1cc(N)nn1CCOc1ccc(C2c3[nH]c4ccc(Cl)cc4c3CCN2C(=O)Oc2ccc(F)cc2)cc1 (centres unmarked) [Compound 1414] | – | – | EC50 [1]: < 0.008 µM
COc1ccc(OC(=O)N2CCc3c([nH]c4ccc(Cl)cc34)C2c2ccc(OCCCn3cncn3)c(OC)c2)cc1 (centres unmarked) [Compound 1151] | 0.04 to 0.2 µM | – | –
CC(CO)(CO)COc1ccc(C2c3[nH]c4ccc(Br)cc4c3CCN2C(=O)Oc2ccc(Cl)cc2)cc1 (centres unmarked) [Compound 1353] | – | – | EC50 [1]: < 0.008 µM
O=C(Oc1ccccc1)N1CCc2c([nH]c3ccc(Cl)cc23)C1c1ccc(OCCCO)cc1 (centres unmarked) [Compound 1062] | < 0.008 µM | – | –
Cc1ccc(OC(=O)N2CCc3c([nH]c4ccc(Cl)cc34)C2c2ccc(OCCCCl)cc2)cc1 (centres unmarked) [Compound 915] | < 0.008 µM | – | –
O=C(Oc1ccc(F)cc1)N1CCc2c([nH]c3ccc(Cl)cc23)C1c1ccc(OCCCCCCN2CCCC2)cc1 (centres unmarked) [Compound 773] | – | < 0.008 µM | –
C=CCOc1ccc(C2c3[nH]c4ccc(Cl)cc4c3CCN2C(=O)Oc2ccc(OC)cc2)cc1 (centres unmarked) [Compound 432] | < 0.008 µM | – | –
CC(C)S(=O)(=O)NCC(O)COc1ccc(C2c3[nH]c4ccc(Cl)cc4c3CCN2C(=O)Oc2ccc(F)cc2)cc1 (centres unmarked) [Compound 1557] | – | – | EC50 [1]: 0.2 to 1 µM
O=C(Oc1ccc(F)cc1)N1CCc2c([nH]c3ccc(Br)cc23)C1c1ccc(C(F)(F)F)cc1 (centres unmarked) [Compound 426] | – | – | EC50 (HeLa cells, hypoxic conditions (1% O2), 24-48 hours, VEGF in conditioned media, read-out: ELISA EC50): < 0.008 µM
O=C(Oc1ccc(Cl)cc1)N1CCc2c([nH]c3ccc(Cl)cc23)[C@@H]1c1ccc(OCCCn2nccn2)cc1 [Compound 1129] | < 0.008 µM | – | –
O=C(Oc1ccc(Cl)cc1)N1CCc2c([nH]c3ccc(Cl)cc23)[C@@H]1c1ccc(OCC2(CO)COCOC2)cc1 [Compound 1263] | < 0.008 µM | – | –
CCS(=O)(=O)NCC(O)CCOc1ccc([C@H]2c3[nH]c4ccc(Cl)cc4c3CCN2C(=O)Oc2ccc(C)cc2)cc1 (some centres unmarked) [Compound 1646] | – | – | EC50 [1]: < 0.008 µM
CCN(CC)CC(O)COc1ccc(C2c3[nH]c4ccc(Cl)cc4c3CCN2C(=O)Oc2ccc(Cl)cc2)cc1 (centres unmarked) [Compound 938] | – | < 0.008 µM | –
O=C(Oc1ccc(F)cc1)N1CCc2c([nH]c3ccc(Cl)cc23)C1c1ccc(OCC[C@H](O)CO)cc1 (some centres unmarked) [Compound 1179] | < 0.008 µM | – | –
O=C(Oc1ccccc1)N1CCc2c([nH]c3ccc(Cl)cc23)C1c1ccc(OCCCn2ccnn2)cc1 (centres unmarked) [Compound 1077] | 0.008 to 0.04 µM | – | –
COCCN(C)CCCOc1cccc(C2c3[nH]c4ccc(Cl)cc4c3CCN2C(=O)Oc2ccc(F)cc2)c1 (centres unmarked) [Compound 1121] | – | > 1 µM | –
CN1CCCC(COc2ccc(C3c4[nH]c5ccc(Cl)cc5c4CCN3C(=O)Oc3ccc(F)cc3)cc2)C1 (centres unmarked) [Compound 932] | – | < 0.008 µM | –
[H]/N=c1\sc(C)cn1CCOc1ccc(C2c3[nH]c4ccc(Cl)cc4c3CCN2C(=O)Oc2ccc(Cl)cc2)cc1 (centres unmarked) [Compound 1394] | – | – | EC50 [1]: < 0.008 µM
COCCOc1ccc(C2c3[nH]c4ccc(Cl)cc4c3CCN2C(=O)Oc2ccc(F)cc2)cc1 (centres unmarked) [Compound 388] | < 0.008 µM | – | –
O=C(Oc1ccc(F)cc1)N1CCc2c([nH]c3ccc(Cl)cc23)C1c1ccc(OCCn2cncn2)cc1 (centres unmarked) [Compound 834] | 0.008 to 0.04 µM | – | –
COC(=O)c1ccc(C2c3[nH]c4ccc(Cl)cc4c3CCN2C(=O)Oc2ccc(Cl)cc2)cc1 (centres unmarked) [Compound 580] | < 0.008 µM | – | –
N#CCOc1ccc(C2c3[nH]c4ccc(Cl)cc4c3CCN2C(=O)Oc2ccccc2Cl)cc1 (centres unmarked) [Compound 1546] | – | – | EC50 [1]: 0.04 to 0.2 µM

SMILES | EC50 [2] | EC50 [3] | other results
COc1ccc(C2c3[nH]c4ccc(Cl)cc4c3CCN2C(=O)Oc2ccc(Cl)cc2)cc1OCCN1CCOCC1 (centres unmarked) [Compound 1095] | – | 0.2 to 1 µM | –
CC1(C)OC[C@H](CCOc2ccc(C3c4[nH]c5ccc(Cl)cc5c4CCN3C(=O)Oc3ccccc3)cc2)O1 (some centres unmarked) [Compound 1168] | < 0.008 µM | – | –
O=C(Oc1ccc(F)cc1)N1CCc2c([nH]c3ccc(Cl)cc23)C1c1ccc(OCCNc2nccs2)cc1 (centres unmarked) [#837] | < 0.008 µM | – | –
COc1ccc(OC(=O)N2CCc3c([nH]c4ccc(Cl)cc34)C2c2ccc(S(=O)(=O)N3CCOCC3)cc2)cc1 (centres unmarked) [Compound 455] | 0.008 to 0.04 µM | – | –
COCCN1CCN(C(=O)COc2ccc(C3c4[nH]c5ccc(Cl)cc5c4CCN3C(=O)Oc3ccc(OC)cc3)cc2)CC1 (centres unmarked) [Compound 1025] | – | 0.04 to 0.2 µM | –
O=C(Oc1ccc(Cl)cc1)N1CCc2c([nH]c3ccc(Cl)cc23)C1c1ccc(OCCCN(CCO)CCO)cc1 (centres unmarked) [Compound 1184] | – | < 0.008 µM | –
CN1CCC(OCCCOc2ccc(C3c4[nH]c5ccc(Cl)cc5c4CCN3C(=O)Oc3ccc(Cl)cc3)cc2)CC1 (centres unmarked) [Compound 1554] | – | > 1 µM | –
Cc1ccc(OC(=O)N2CCc3c([nH]c4ccc(Cl)cc34)[C@@H]2c2ccc(OCCC(O)Cn3ccnn3)cc2)cc1 (some centres unmarked) [Compound 1289] | < 0.008 µM | – | –
COc1cc(C2c3[nH]c4ccc(Cl)cc4c3CCN2C(=O)Oc2ccc(Cl)cc2)ccc1OCCn1cncn1 (centres unmarked) [Compound 1086] | 0.008 to 0.04 µM | – | –
COC(=O)c1ccc(C2c3[nH]c4ccc(Br)cc4c3CCN2C(=O)Oc2ccc(F)cc2)cc1 (centres unmarked) [Compound 592] | < 0.008 µM | – | –
O=C(Oc1ccc(F)cc1)N1CCc2c([nH]c3ccc(Cl)cc23)C1c1ccc(OCCCCN2CCOCC2)cc1 (centres unmarked) [Compound 738] | – | < 0.008 µM | –
COc1ccc(OC(=O)N2CCc3c([nH]c4ccc(Cl)cc34)C2c2ccc(OCCCn3ccnn3)cc2)cc1 (centres unmarked) [Compound 1031] | < 0.008 µM | – | –
COc1ccc(OC(=O)N2CCc3c([nH]c4ccc(Cl)cc34)C2c2ccc(OCCCn3ccnc3)cc2)cc1 (centres unmarked) [Compound 920] | < 0.008 µM | – | –
CN1CCC(COc2ccc(C3c4[nH]c5ccc(Cl)cc5c4CCN3C(=O)Oc3ccc(Cl)cc3)cc2)CC1 (centres unmarked) [Compound 1099] | – | 0.008 to 0.04 µM | –
C#CCCCOc1ccc([C@H]2c3[nH]c4ccc(Cl)cc4c3CCN2C(=O)Oc2ccc(Cl)cc2)cc1 [Compound 1613] | – | – | EC50 [1]: < 0.008 µM
CC(=O)Oc1ccc([C@@H]2c3[nH]c4ccc(Cl)cc4c3CCN2C(=O)Oc2ccc(Cl)cc2)cc1 [Compound 1539] | – | – | EC50 [1]: 0.04 to 0.2 µM
O=C(Oc1ccc(Cl)cc1)N1CCc2c([nH]c3ccc(Cl)cc23)[C@@H]1c1ccc(O)cc1 [Compound 1160] | < 0.008 µM | – | –
O=C(Oc1ccc(F)cc1)N1CCc2c([nH]c3ccc(Cl)cc23)C1c1ccc(OCCn2cccn2)cc1 (centres unmarked) [Compound 836] | 0.008 to 0.04 µM | – | –
O=C(Oc1ccc(Cl)cc1)N1CCc2c([nH]c3ccc(Cl)cc23)C1c1ccc(OCCCCCCN2CCCC2)cc1 (centres unmarked) [Compound 783] | – | < 0.008 µM | –
CC(=O)N1CCN(CCCOc2cccc(C3c4[nH]c5ccc(Cl)cc5c4CCN3C(=O)Oc3ccc(F)cc3)c2)CC1 (centres unmarked) [Compound 1364] | – | 0.04 to 0.2 µM | –
O=C(Oc1ccc(Cl)cc1)N1CCc2c([nH]c3ccc(Cl)cc23)C1c1ccc(OCCCCn2cncn2)cc1 (centres unmarked) [Compound 706] | < 0.008 µM | – | –
Cc1nccnc1Oc1ccc([C@H]2c3[nH]c4ccc(Cl)cc4c3CCN2C(=O)Oc2ccc(Cl)cc2)cc1 [Compound 1659] | – | – | EC50 [1]: < 0.008 µM

SMILES | EC50 [2] | EC50 [3] | other results
COc1ccc(OC(=O)N2CCc3c([nH]c4ccc(Cl)cc34)C2c2ccc(OCC(O)CO)cc2)cc1 (centres unmarked) [Compound 635] | 0.008 to 0.04 µM | – | –
O=C(Oc1ccc(Cl)cc1)N1CCc2c([nH]c3ccc(Cl)cc23)[C@@H]1c1ccc(OC2CCN(CCN3CCOCC3)CC2)cc1 [Compound 1682] | – | < 0.008 µM | –
COc1ccc(OC(=O)N2CCc3c([nH]c4ccc(Cl)cc34)C2c2ccc(OCCC3CCCN3C)cc2)cc1 (centres unmarked) [Compound 1005] | – | 0.2 to 1 µM | –
Cc1cnc(NCCOc2ccc(C3c4[nH]c5ccc(Cl)cc5c4CCN3C(=O)Oc3ccc(F)cc3)cc2)s1 (centres unmarked) [#838] | < 0.008 µM | – | –
O=C(Oc1ccc(Cl)cc1)N1CCc2c([nH]c3ccc(Cl)cc23)C1c1ccc(OCCNc2nccs2)cc1 (centres unmarked) [#841] | < 0.008 µM | – | –
COc1cc(C2c3[nH]c4ccc(Cl)cc4c3CCN2C(=O)Oc2ccc(Cl)cc2)ccc1OCCCCn1cncn1 (centres unmarked) [Compound 1088] | 0.008 to 0.04 µM | – | –
COc1cc(C2c3[nH]c4ccc(Cl)cc4c3CCN2C(=O)Oc2ccc(C)cc2)ccc1OCCCN1CCOCC1 (centres unmarked) [Compound 1132] | – | 0.008 to 0.04 µM | –
CC(=O)N1CCN(CC(O)COc2ccc(C3c4[nH]c5ccc(Cl)cc5c4CCN3C(=O)Oc3ccc(F)cc3)cc2)CC1 (centres unmarked) [Compound 637] | – | < 0.008 µM | –
N#Cc1cn(CCOc2ccc(C3c4[nH]c5ccc(Cl)cc5c4CCN3C(=O)Oc3ccc(Cl)cc3)cc2)nc1N (centres unmarked) [Compound 1421] | – | – | EC50 [1]: < 0.008 µM
O=C(COc1ccc(C2c3[nH]c4ccc(Cl)cc4c3CCN2C(=O)Oc2ccc(F)cc2)cc1)NCCN1CCOCC1 (centres unmarked) [Compound 1022] | – | 0.04 to 0.2 µM | –
O=C(Oc1ccc(Cl)cc1)N1CCc2c([nH]c3ccc(Cl)cc23)C1c1ccc(OCCCI)cc1 (centres unmarked) [Compound 617] | 0.008 to 0.04 µM | – | –
O=C(Oc1ccc(Cl)cc1)N1CCc2c([nH]c3ccc(Cl)cc23)[C@@H]1c1ccc(OC(CO)CO)cc1 [Compound 1259] | 0.008 to 0.04 µM | – | –
O=C(Oc1ccc(F)cc1)N1CCc2c([nH]c3ccc(Cl)cc23)C1c1ccc(OCCCCN2CCCC2)cc1 (centres unmarked) [Compound 736] | – | < 0.008 µM | –
COc1ccc(OC(=O)N2CCc3c([nH]c4ccc(Cl)cc34)C2c2ccc(OCCCn3nccn3)cc2)cc1 (centres unmarked) [Compound 1134] | < 0.008 µM | – | –
O=C(Oc1ccc(Cl)cc1)N1CCc2c([nH]c3ccc(Cl)cc23)C1c1ccc(OCCCCCCn2ccnc2)cc1 (centres unmarked) [Compound 790] | < 0.008 µM | – | –
COc1cc(C2c3[nH]c4ccc(Cl)cc4c3CCN2C(=O)Oc2ccccc2)ccc1OCCCN1CCOCC1 (centres unmarked) [Compound 1130] | – | 0.008 to 0.04 µM | –
O=C1NC2CSC(CCCCC(=O)OCCOc3ccc(C4c5[nH]c6ccc(Cl)cc6c5CCN4C(=O)Oc4ccc(Cl)cc4)cc3)C2N1 (centres unmarked) [Compound 544] | – | < 0.008 µM | –
C[Si](C)(C)CCS(=O)(=O)N1CCC(Oc2ccc([C@H]3c4[nH]c5ccc(Cl)cc5c4CCN3C(=O)Oc3ccc(F)cc3)cc2)CC1 [Compound 1607] | – | – | EC50 [1]: < 0.008 µM
O=C(NCC(O)COc1ccc(C2c3[nH]c4ccc(Cl)cc4c3CCN2C(=O)Oc2ccc(Cl)cc2)cc1)C1CC1 (centres unmarked) [Compound 1560] | – | – | EC50 [1]: 0.008 to 0.04 µM
O=C(Oc1ccc(Cl)cc1)N1CCc2c([nH]c3ccc(Cl)cc23)[C@@H]1c1ccc(OC2CCN(C[C@H](O)CO)CC2)cc1 [Compound 1704] | – | 0.008 to 0.04 µM | –
O=C(Oc1ccc(Cl)cc1)N1CCc2c([nH]c3ccc(Cl)cc23)C1c1ccc(OCCCn2ccnn2)cc1 (centres unmarked) [Compound 417] | < 0.008 µM | – | –
